Test results taken from ChEMBL document CHEMBL1201862, “PubChem BioAssay data set” (2004).
The source made the active and inactive calls.

Tests used:
[1] = target: Intestinal-type alkaline phosphatase (Mus musculus, UniProt P24822); test: PubChem AID 488874; type: functional
[2] = target: T1, Alkaline phosphatase, tissue-nonspecific isozyme (Homo sapiens, UniProt P05186); test: inhibition of tissue-nonspecific alkaline phosphatase – biochemical, dose response (AID 488882); type: functional
T1 sequence (P05186 whole entry): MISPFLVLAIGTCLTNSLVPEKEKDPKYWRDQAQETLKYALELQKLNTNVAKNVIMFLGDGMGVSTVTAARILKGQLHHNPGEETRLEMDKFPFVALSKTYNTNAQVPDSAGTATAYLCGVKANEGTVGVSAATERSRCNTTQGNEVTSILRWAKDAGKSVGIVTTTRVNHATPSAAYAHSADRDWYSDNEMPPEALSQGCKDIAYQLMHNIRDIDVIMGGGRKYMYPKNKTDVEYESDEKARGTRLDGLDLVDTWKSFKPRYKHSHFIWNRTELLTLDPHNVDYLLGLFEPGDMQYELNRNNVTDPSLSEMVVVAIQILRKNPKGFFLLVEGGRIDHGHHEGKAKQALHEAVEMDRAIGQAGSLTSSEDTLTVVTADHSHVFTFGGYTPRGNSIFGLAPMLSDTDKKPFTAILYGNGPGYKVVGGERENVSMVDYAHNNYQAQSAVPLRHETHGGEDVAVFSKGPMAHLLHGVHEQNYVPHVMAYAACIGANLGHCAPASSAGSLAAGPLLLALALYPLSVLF

[3] = target: T2, Histone-lysine N-methyltransferase NSD2 (Homo sapiens, UniProt O96028); type: biochemical
T2 sequence (O96028 whole entry): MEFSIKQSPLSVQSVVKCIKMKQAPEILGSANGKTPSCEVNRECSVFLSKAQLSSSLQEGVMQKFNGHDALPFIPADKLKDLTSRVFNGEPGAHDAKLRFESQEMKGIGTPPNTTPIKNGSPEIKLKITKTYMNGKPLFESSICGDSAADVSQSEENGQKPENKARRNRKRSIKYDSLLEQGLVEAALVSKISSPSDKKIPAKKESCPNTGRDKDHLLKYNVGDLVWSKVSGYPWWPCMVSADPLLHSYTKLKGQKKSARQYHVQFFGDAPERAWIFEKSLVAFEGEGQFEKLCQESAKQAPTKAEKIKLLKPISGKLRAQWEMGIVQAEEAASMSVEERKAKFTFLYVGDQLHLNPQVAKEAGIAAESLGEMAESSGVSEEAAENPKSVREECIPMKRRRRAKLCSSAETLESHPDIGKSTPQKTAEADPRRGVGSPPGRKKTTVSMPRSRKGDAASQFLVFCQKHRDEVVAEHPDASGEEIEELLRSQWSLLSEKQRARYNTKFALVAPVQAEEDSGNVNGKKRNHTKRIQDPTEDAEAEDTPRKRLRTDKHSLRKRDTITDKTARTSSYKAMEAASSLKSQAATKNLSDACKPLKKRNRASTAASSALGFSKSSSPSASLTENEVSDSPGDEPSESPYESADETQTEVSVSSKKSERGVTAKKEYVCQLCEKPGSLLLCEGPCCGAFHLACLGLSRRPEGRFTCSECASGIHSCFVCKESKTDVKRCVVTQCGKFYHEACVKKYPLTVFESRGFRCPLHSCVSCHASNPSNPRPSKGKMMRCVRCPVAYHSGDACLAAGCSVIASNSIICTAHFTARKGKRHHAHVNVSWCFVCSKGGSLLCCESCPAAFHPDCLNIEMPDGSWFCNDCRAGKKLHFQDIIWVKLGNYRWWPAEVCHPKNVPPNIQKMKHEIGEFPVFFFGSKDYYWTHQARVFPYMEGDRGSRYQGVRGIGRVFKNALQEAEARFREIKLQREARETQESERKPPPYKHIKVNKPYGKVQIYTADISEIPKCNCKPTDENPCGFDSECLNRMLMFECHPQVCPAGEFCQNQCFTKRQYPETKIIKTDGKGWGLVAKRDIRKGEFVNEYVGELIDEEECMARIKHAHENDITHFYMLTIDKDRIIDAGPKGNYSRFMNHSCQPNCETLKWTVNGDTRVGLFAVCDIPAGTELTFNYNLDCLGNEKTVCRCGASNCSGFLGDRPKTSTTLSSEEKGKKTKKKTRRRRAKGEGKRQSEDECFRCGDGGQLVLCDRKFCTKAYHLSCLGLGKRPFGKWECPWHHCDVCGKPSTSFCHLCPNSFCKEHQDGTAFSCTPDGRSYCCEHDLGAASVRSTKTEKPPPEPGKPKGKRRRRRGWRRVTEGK

[4] = target: Eukaryotic translation initiation factor 4E (Mus musculus, UniProt P63073); test: blockers of eIF4G binding by eIF4E – biochemical, TR-FRET, dose response (AID 855); type: functional;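 note: potency for disrupting eIF4E binding to eIF4GI seen as loss of FRET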
Chain of Eukaryotic translation initiation factor 4E (P63073 whole entry): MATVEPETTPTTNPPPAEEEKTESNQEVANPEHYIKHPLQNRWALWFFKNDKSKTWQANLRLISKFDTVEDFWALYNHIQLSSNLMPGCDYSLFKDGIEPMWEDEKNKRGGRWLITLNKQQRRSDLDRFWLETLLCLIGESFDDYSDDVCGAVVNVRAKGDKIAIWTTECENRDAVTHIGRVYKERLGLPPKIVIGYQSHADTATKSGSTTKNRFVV

[5] = target: T3, Calpain-2 catalytic subunit (Sus scrofa, UniProt P43367); test: m-calpain protease blockers, concentration series – biochemical, fluorogenic peptide substrate, dose response (AID 1420); type: functional
T3 sequence (P43367 whole entry): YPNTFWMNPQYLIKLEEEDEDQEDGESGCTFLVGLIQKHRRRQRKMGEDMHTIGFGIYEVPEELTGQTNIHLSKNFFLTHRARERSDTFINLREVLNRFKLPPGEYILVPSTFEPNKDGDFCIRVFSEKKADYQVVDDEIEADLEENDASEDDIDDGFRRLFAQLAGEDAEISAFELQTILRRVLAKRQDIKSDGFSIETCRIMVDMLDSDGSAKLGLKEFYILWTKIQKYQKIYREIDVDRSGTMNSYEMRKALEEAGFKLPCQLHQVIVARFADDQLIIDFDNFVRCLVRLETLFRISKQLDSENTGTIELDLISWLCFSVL

[6] = target: T4, Intestinal-type alkaline phosphatase (Homo sapiens, UniProt P09923); test: inhibition of human intestinal alkaline phosphatase – biochemical, luminescent, uHTS hits, set 2, dose response (AID 488793); type: functional
T4 sequence (P09923 whole entry): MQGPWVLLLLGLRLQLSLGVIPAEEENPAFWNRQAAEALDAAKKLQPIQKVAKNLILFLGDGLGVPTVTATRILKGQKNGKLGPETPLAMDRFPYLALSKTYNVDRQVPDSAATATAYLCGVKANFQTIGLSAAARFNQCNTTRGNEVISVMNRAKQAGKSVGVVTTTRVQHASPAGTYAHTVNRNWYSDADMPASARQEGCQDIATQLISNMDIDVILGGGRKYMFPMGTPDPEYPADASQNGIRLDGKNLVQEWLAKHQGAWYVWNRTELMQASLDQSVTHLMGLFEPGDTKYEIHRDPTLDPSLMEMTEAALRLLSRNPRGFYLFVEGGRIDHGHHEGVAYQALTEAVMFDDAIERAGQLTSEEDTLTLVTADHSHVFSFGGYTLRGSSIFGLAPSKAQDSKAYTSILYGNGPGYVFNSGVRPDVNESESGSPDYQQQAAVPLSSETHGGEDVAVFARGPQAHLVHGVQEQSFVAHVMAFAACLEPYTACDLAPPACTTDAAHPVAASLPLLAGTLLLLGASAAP

[7] = target: T4, Intestinal-type alkaline phosphatase; test: Dose Response confirmation of uHTS hits from a small molecule inhibitors of human intestinal alkaline phosphatase via a luminescent assay. [Related pubchem assays (depositor defined):AID2544, AID2574]; type: functional
[8] = target: T5, Mannose-6-phosphate isomerase (Homo sapiens, UniProt P34949); test: MPI enzyme activity inhibition – biochemical, fluorescence intensity, coupled assay, primary screen (AID 1209)
T5 sequence (P34949 whole entry): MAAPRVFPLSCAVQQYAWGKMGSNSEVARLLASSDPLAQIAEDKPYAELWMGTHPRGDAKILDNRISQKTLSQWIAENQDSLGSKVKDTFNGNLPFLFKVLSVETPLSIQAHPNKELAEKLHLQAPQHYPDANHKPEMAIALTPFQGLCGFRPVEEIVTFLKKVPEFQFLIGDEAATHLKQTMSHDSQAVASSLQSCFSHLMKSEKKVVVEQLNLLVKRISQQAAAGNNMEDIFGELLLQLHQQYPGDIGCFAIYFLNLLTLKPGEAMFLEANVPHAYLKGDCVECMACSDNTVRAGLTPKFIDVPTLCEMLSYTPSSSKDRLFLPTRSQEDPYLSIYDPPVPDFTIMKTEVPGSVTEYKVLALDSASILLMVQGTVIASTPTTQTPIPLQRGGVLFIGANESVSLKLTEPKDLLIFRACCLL

[9] = target: Cytochrome P450 3A4 (Homo sapiens, UniProt P08684);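 note: CYP3A4 tested as one member of a cytochrome P450 panel screen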
Chain of Cytochrome P450 3A4 (P08684 whole entry): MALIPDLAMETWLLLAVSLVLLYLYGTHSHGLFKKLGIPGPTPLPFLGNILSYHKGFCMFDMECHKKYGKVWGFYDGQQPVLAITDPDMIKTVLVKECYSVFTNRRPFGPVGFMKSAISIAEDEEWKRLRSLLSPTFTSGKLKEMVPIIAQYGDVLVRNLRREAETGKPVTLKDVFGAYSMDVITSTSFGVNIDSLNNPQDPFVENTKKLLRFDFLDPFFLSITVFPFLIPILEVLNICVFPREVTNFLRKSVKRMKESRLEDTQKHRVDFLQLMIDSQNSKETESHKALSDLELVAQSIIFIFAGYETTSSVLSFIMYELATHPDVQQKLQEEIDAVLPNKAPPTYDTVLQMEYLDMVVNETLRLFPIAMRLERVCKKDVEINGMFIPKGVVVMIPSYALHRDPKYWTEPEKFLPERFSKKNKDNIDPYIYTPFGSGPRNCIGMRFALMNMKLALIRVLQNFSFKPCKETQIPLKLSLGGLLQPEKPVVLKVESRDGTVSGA

[10] = target: Luciferin 4-monooxygenase (Photinus pyralis, UniProt P08659); test: inhibition of purified Photinus pyralis luciferase – biochemical, luminescence, dose response (AID 1891)
Chain of Luciferin 4-monooxygenase (P08659 whole entry): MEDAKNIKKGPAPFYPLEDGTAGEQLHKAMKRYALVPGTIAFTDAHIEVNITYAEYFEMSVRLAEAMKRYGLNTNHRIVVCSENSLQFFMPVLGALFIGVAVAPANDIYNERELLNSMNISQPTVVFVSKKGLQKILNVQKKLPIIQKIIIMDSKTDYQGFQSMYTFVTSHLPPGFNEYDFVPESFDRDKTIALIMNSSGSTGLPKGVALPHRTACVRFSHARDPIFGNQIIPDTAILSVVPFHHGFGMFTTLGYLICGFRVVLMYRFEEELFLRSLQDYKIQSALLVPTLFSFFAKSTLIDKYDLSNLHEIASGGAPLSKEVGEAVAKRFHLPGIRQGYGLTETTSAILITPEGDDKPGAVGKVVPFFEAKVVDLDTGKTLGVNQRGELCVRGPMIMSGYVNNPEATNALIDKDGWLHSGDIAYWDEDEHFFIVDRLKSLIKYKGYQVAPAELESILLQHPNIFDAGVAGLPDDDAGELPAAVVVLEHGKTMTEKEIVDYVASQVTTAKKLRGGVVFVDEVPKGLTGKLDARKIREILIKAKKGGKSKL

[11] = Luminescence Cell-Based Dose Confirmation HTS to Identify Inhibitors of Platelet Dense Granule Release. [Related pubchem assays: 1663 (Primary HTS), 1678 (Summary of Project)]; type: functional
[12] = system: HeLa; test: ATP-based viability loss in HeLa cells – cell-based, CellTiter-Glo luminescence, cherry-pick samples, cytotoxicity control for MITF activator project, dose response (AID 540259); type: functional; details: Homo sapiens

Chain of Intestinal-type alkaline phosphatase (Mus musculus, UniProt P24822) (P24822 whole entry): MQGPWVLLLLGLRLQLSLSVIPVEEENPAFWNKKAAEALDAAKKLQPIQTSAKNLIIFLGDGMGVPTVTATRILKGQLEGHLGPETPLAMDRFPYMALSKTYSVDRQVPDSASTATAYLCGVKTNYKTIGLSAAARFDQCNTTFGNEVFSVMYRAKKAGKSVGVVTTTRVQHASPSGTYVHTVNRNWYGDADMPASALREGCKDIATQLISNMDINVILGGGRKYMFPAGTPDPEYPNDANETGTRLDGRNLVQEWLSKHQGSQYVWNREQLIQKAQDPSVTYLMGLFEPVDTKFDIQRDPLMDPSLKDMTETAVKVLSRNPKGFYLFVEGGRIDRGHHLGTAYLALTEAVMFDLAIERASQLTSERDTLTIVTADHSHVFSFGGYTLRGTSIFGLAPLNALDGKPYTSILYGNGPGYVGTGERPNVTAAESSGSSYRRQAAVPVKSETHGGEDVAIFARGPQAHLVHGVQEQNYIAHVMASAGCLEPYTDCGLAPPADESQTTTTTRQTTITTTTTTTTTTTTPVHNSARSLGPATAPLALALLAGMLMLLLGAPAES

In the case of CC[n+]1c(/C=C/c2c[nH]c3ccccc23)ccc2cc(C)ccc21, the IC50 [1] is reported as 11 µM (active), the IC50 [2] is reported as 10.8 µM (active) and the AC50 [3] is reported as > 20 µM (inactive). The IC50 [4] was 50 µM (inactive), the IC50 [5] was 24.6 µM (not active) and the IC50 [6] was 10.2 µM (active). The IC50 [7] was 9.63 µM (active) and the IC50 [8] was > 50 µM (not active).

For O=C(c1cc(C(F)(F)F)cc(C(F)(F)F)c1)N1CCC2(CC1)CN(c1ccccc1)C2, the AC50 [9] was “inconclusive”.

For COc1ccc(C(=O)Nc2cc(OC)nc(OC)n2)cc1, the EC50 [10] was 16.3 µM (active), the EC50 [11] was 8.79 µM (active) and the AC50 [12] was 178 µM (active).
